In US9751888B2, “Heterocyclic compounds and uses thereof” (Infinity Pharmaceuticals, Inc., priority 2013, dated 2017):

target: human Class I PI3 kinase γ (Homo sapiens (Human), UniProt P48736); assay: PI3-Kinase Promega ADP-Glo Max assay, γ isoform; assay type: biochemical; details: 40 nM kinase, 3 mM ATP, 500 uM diC8-PtdInsP; read-out: Promega γ PI3K IC50
Method: Promega ADP-Glo Max assay kit (Cat. No. V7002) was utilized to determine IC50 values for α, β, δ and γ isoforms of human Class I PI3 kinases (Millipore). Samples of kinase (20 nM α or δ, 40 nM β or γ isoform) were incubated with compound for 15 minutes at room temperature in reaction buffer (15 mM HEPES pH 7.4, 20 mM NaCl, 1 mM EGTA, 0.02% Tween 20, 10 mM MgCl2, 0.2 mg/mL bovine-γ-globulins) followed by addition of ATP/diC8-PtdInsP mixture to give final concentrations of 3 mM ATP and 500 uM diC8-PtdInsP. Reactions were incubated at room temperature for 2 hours followed by addition of 25 uL of stop solution. After a 40-minute incubation at room temperature, 50 uL of Promega detection mix was added followed by incubation for 1 hour at room temperature. Plates were then read on Envision plate reader in luminescence mode. Data was converted to % inhibition using the following equation below:
[formula] where S is the sample luminescence, Pos is a positive control without added PI3K, Neg is the negative control without added compound. Data was then plotted as % inhibition vs compound concentration.
Certain compounds provided herein were tested in PI3-Kinase Promega Assay using procedures as described above to determine IC50 values for α, β, δ and/or γ isoforms.

Sequence of human Class I PI3 kinase γ (P48736 whole entry, canonical isoform): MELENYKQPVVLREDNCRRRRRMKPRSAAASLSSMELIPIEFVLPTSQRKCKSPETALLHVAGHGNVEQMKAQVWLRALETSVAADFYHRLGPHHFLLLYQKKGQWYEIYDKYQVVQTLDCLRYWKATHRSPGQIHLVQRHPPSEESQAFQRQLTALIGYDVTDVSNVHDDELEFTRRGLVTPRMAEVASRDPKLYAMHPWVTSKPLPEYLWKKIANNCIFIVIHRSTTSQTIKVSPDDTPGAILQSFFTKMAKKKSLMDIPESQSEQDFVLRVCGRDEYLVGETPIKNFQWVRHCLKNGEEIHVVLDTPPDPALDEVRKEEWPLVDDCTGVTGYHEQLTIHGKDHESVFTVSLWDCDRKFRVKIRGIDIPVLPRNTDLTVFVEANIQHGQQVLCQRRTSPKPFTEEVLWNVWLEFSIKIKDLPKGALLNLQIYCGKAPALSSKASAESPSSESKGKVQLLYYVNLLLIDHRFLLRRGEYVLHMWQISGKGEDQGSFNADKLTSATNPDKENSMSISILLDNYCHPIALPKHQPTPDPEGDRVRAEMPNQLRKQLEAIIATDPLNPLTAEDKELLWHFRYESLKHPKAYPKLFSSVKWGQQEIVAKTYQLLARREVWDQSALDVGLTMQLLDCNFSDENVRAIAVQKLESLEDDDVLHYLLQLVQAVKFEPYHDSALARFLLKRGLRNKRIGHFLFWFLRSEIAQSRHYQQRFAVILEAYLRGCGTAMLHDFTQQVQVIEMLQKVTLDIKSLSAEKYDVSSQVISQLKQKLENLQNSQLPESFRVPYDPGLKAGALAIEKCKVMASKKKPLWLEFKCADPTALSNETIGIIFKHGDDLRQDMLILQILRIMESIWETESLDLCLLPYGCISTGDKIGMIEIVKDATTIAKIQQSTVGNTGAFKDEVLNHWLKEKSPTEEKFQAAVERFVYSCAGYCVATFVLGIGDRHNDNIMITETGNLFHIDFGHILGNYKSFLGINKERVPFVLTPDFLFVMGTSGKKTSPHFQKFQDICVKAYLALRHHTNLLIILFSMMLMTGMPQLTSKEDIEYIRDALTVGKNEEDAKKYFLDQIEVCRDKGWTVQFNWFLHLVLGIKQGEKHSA

Row | IC50 [µM] | Compound
1 | 0.5 to 1 | C[C@H](NC(=O)c1nccnc1N)c1cc2cccc(C(F)(F)F)c2c(=O)n1-c1ccccc1 [Compound 52]
2 | 0.01 to 0.1 | C[C@H](NC(=O)c1c(N)nn2cccnc12)c1cc2cccc(Cl)c2c(=O)n1CCCNS(C)(=O)=O [Compound 53]
3 | 0.01 to 0.1 | CNS(=O)(=O)CCn1c([C@H](C)NC(=O)c2c(N)nn3cccnc23)cc2cccc(Cl)c2c1=O [Compound 54]
4 | 0.1 to 0.5 | C[C@H](NC(=O)c1c(N)nn2cccnc12)c1cc2cccc(Cl)c2c(=O)n1CCc1nnnn1C [Compound 55]
5 | 1 to 10 | C[C@H](NC(=O)c1c(N)nn2cccnc12)c1cc2cccc(Cl)c2c(=O)n1CCc1nnn(C)n1 [Compound 56]
6 | 0.1 to 0.5 | C[C@H](NC(=O)c1c(N)nn2cccnc12)c1cc2cccc(Cl)c2c(=O)n1CCCS(C)(=O)=O [Compound 57]
7 | 0.01 to 0.1 | C[C@H](NC(=O)c1c(N)nn2cccnc12)c1cc2cccc(Cl)c2c(=O)n1CCS(=O)(=O)N(C)C [Compound 58]

target: p110 γ (RAW264.7 cells) (Mus musculus (Mouse), UniProt Q9JHG7); assay: PI3K-γ selective cellular assay: phospho-AKT in C5a stimulated RAW264.7 macrophages; assay type: cell-based; details: serum-starved RAW264.7 cells stimulated with C5a
Sequence (Q9JHG7 whole entry): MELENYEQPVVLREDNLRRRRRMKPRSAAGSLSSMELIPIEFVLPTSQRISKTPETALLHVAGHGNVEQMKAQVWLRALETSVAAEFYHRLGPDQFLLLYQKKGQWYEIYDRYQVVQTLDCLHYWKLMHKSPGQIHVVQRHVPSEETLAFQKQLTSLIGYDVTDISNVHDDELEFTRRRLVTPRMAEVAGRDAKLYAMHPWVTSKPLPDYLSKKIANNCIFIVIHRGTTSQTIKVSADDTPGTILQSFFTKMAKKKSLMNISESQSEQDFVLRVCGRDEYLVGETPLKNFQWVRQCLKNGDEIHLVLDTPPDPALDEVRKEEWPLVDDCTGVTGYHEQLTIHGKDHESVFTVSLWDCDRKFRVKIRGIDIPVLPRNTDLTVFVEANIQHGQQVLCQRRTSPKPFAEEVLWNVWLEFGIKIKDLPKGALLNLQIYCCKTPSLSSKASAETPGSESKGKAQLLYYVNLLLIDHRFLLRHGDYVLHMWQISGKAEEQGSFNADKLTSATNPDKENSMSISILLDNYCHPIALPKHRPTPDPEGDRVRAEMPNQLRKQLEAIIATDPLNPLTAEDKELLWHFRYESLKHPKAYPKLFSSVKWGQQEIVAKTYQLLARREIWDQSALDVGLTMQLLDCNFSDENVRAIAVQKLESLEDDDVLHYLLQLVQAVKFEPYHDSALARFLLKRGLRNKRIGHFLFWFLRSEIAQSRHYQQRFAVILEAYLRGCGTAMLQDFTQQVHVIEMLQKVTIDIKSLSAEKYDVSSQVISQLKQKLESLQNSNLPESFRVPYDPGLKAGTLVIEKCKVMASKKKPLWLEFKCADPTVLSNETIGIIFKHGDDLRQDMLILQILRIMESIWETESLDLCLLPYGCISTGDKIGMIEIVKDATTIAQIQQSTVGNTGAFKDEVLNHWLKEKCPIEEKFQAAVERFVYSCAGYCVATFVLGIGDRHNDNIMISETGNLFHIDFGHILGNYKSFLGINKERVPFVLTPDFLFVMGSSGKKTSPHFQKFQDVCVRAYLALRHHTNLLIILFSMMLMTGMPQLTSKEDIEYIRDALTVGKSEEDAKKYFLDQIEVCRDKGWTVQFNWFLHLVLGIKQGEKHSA
Method: Certain compounds provided herein were tested in RAW 264.7 cell model using procedures as described above.

Row | IC50 [µM] | Compound
8 | 0.01 to 0.1 | C[C@H](NC(=O)c1nccnc1N)c1cc2cccc(C(F)(F)F)c2c(=O)n1-c1ccccc1 [Compound 52]
9 | 0.1 to 0.5 | C[C@H](NC(=O)c1c(N)nn2cccnc12)c1cc2cccc(Cl)c2c(=O)n1CCCNS(C)(=O)=O [Compound 53]
10 | 0.01 to 0.1 | CNS(=O)(=O)CCn1c([C@H](C)NC(=O)c2c(N)nn3cccnc23)cc2cccc(Cl)c2c1=O [Compound 54]
11 | 0.1 to 0.5 | C[C@H](NC(=O)c1c(N)nn2cccnc12)c1cc2cccc(Cl)c2c(=O)n1CCc1nnnn1C [Compound 55]
12 | 0.1 to 0.5 | C[C@H](NC(=O)c1c(N)nn2cccnc12)c1cc2cccc(Cl)c2c(=O)n1CCc1nnn(C)n1 [Compound 56]
13 | 0.1 to 0.5 | C[C@H](NC(=O)c1c(N)nn2cccnc12)c1cc2cccc(Cl)c2c(=O)n1CCCS(C)(=O)=O [Compound 57]
14 | 0.001 to 0.01 | C[C@H](NC(=O)c1c(N)nn2cccnc12)c1cc2cccc(Cl)c2c(=O)n1CCS(=O)(=O)N(C)C [Compound 58]

target: human Class I PI3 kinase α (Homo sapiens (Human), UniProt P42336); assay: PI3-Kinase Promega ADP-Glo Max assay, α isoform; assay type: biochemical; details: 20 nM kinase, 3 mM ATP, 500 uM diC8-PtdInsP; read-out: Promega α PI3K IC50
Sequence (P42336 whole entry, canonical isoform): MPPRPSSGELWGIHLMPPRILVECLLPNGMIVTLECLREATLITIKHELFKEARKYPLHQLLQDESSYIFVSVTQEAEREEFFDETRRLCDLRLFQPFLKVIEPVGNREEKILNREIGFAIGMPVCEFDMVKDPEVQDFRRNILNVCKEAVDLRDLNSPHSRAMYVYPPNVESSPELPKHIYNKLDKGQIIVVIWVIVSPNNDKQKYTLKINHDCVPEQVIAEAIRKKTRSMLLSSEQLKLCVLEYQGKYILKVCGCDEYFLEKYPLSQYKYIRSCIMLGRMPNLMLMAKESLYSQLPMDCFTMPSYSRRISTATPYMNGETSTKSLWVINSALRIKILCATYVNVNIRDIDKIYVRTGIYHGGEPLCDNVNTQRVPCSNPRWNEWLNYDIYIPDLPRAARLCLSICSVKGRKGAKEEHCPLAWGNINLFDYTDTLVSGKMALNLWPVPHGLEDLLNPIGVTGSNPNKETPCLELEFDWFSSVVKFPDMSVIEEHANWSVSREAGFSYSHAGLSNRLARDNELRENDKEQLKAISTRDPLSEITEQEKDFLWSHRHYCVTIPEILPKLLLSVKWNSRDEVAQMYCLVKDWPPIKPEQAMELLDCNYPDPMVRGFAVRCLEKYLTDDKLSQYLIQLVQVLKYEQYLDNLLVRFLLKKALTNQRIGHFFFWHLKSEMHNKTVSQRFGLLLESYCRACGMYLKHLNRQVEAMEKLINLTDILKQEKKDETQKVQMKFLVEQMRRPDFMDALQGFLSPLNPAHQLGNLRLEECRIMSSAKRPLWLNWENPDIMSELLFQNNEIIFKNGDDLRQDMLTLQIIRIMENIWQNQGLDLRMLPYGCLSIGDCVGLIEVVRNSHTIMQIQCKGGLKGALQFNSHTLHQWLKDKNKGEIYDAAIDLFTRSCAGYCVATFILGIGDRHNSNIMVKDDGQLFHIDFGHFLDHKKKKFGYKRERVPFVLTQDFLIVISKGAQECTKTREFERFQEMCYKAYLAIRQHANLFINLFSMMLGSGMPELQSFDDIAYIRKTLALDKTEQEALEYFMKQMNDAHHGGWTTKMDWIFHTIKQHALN
Sequence (P27986 whole entry partner, canonical isoform): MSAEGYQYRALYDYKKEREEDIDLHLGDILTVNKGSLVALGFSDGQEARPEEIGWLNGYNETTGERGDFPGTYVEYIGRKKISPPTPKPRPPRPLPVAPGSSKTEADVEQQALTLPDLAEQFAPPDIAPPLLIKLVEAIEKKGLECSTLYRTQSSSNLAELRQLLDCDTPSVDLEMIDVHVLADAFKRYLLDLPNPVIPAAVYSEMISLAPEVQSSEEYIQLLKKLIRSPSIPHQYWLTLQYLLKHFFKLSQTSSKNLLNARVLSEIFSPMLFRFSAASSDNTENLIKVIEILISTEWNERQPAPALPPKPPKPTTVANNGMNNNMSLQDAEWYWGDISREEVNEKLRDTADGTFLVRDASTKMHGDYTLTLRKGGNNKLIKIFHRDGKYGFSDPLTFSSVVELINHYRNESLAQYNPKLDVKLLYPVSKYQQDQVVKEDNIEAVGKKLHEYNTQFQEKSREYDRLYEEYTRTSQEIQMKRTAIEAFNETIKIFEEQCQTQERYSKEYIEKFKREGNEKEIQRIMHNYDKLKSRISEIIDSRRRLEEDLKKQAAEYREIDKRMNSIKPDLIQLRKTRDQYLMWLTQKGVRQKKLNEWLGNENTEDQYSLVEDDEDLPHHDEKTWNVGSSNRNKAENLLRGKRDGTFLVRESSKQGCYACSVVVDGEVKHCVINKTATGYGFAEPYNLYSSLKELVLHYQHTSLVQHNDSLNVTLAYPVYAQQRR

Row | IC50 [µM] | Compound
15 | 1 to 10 | C[C@H](NC(=O)c1nccnc1N)c1cc2cccc(C(F)(F)F)c2c(=O)n1-c1ccccc1 [Compound 52]
16 | 0.5 to 1 | C[C@H](NC(=O)c1c(N)nn2cccnc12)c1cc2cccc(Cl)c2c(=O)n1CCCNS(C)(=O)=O [Compound 53]
17 | 1 to 10 | CNS(=O)(=O)CCn1c([C@H](C)NC(=O)c2c(N)nn3cccnc23)cc2cccc(Cl)c2c1=O [Compound 54]
18 | 1 to 10 | C[C@H](NC(=O)c1c(N)nn2cccnc12)c1cc2cccc(Cl)c2c(=O)n1CCc1nnnn1C [Compound 55]
19 | 1 to 10 | C[C@H](NC(=O)c1c(N)nn2cccnc12)c1cc2cccc(Cl)c2c(=O)n1CCc1nnn(C)n1 [Compound 56]
20 | 1 to 10 | C[C@H](NC(=O)c1c(N)nn2cccnc12)c1cc2cccc(Cl)c2c(=O)n1CCCS(C)(=O)=O [Compound 57]
21 | 0.5 to 1 | C[C@H](NC(=O)c1c(N)nn2cccnc12)c1cc2cccc(Cl)c2c(=O)n1CCS(=O)(=O)N(C)C [Compound 58]

target: human Class I PI3 kinase δ (Homo sapiens (Human), UniProt O00329); assay: PI3-Kinase Promega ADP-Glo Max assay, δ isoform; assay type: biochemical; details: 20 nM kinase, 3 mM ATP, 500 uM diC8-PtdInsP; read-out: Promega δ PI3K IC50

Row | IC50 [µM] | Compound
22 | 0.5 to 1 | C[C@H](NC(=O)c1nccnc1N)c1cc2cccc(C(F)(F)F)c2c(=O)n1-c1ccccc1 [Compound 52]
23 | 0.1 to 0.5 | C[C@H](NC(=O)c1c(N)nn2cccnc12)c1cc2cccc(Cl)c2c(=O)n1CCCNS(C)(=O)=O [Compound 53]
24 | 0.1 to 0.5 | CNS(=O)(=O)CCn1c([C@H](C)NC(=O)c2c(N)nn3cccnc23)cc2cccc(Cl)c2c1=O [Compound 54]
25 | 1 to 10 | C[C@H](NC(=O)c1c(N)nn2cccnc12)c1cc2cccc(Cl)c2c(=O)n1CCc1nnnn1C [Compound 55]
26 | 1 to 10 | C[C@H](NC(=O)c1c(N)nn2cccnc12)c1cc2cccc(Cl)c2c(=O)n1CCc1nnn(C)n1 [Compound 56]
27 | 1 to 10 | C[C@H](NC(=O)c1c(N)nn2cccnc12)c1cc2cccc(Cl)c2c(=O)n1CCCS(C)(=O)=O [Compound 57]
28 | 0.1 to 0.5 | C[C@H](NC(=O)c1c(N)nn2cccnc12)c1cc2cccc(Cl)c2c(=O)n1CCS(=O)(=O)N(C)C [Compound 58]

target: human Class I PI3 kinase β (Homo sapiens (Human), UniProt P42338); assay: PI3-Kinase Promega ADP-Glo Max assay, β isoform; assay type: biochemical; details: 40 nM kinase, 3 mM ATP, 500 uM diC8-PtdInsP; read-out: Promega β PI3K IC50

Row | IC50 [µM] | Compound
29 | 1 to 10 | C[C@H](NC(=O)c1nccnc1N)c1cc2cccc(C(F)(F)F)c2c(=O)n1-c1ccccc1 [Compound 52]
30 | 0.01 to 0.1 | C[C@H](NC(=O)c1c(N)nn2cccnc12)c1cc2cccc(Cl)c2c(=O)n1CCCNS(C)(=O)=O [Compound 53]
31 | 0.1 to 0.5 | CNS(=O)(=O)CCn1c([C@H](C)NC(=O)c2c(N)nn3cccnc23)cc2cccc(Cl)c2c1=O [Compound 54]
32 | 0.1 to 0.5 | C[C@H](NC(=O)c1c(N)nn2cccnc12)c1cc2cccc(Cl)c2c(=O)n1CCc1nnnn1C [Compound 55]
33 | 0.5 to 1 | C[C@H](NC(=O)c1c(N)nn2cccnc12)c1cc2cccc(Cl)c2c(=O)n1CCc1nnn(C)n1 [Compound 56]
34 | 0.1 to 0.5 | C[C@H](NC(=O)c1c(N)nn2cccnc12)c1cc2cccc(Cl)c2c(=O)n1CCCS(C)(=O)=O [Compound 57]
35 | 0.5 to 1 | C[C@H](NC(=O)c1c(N)nn2cccnc12)c1cc2cccc(Cl)c2c(=O)n1CCS(=O)(=O)N(C)C [Compound 58]

target: p110 δ (RAJI cells) (Homo sapiens (Human), UniProt O00329); assay: PI3K-δ selective cellular assay: phospho-AKT in anti-human IgM stimulated RAJI cells; assay type: cell-based; details: serum-starved RAJI cells stimulated with anti-human IgM
Sequence (O00329 whole entry): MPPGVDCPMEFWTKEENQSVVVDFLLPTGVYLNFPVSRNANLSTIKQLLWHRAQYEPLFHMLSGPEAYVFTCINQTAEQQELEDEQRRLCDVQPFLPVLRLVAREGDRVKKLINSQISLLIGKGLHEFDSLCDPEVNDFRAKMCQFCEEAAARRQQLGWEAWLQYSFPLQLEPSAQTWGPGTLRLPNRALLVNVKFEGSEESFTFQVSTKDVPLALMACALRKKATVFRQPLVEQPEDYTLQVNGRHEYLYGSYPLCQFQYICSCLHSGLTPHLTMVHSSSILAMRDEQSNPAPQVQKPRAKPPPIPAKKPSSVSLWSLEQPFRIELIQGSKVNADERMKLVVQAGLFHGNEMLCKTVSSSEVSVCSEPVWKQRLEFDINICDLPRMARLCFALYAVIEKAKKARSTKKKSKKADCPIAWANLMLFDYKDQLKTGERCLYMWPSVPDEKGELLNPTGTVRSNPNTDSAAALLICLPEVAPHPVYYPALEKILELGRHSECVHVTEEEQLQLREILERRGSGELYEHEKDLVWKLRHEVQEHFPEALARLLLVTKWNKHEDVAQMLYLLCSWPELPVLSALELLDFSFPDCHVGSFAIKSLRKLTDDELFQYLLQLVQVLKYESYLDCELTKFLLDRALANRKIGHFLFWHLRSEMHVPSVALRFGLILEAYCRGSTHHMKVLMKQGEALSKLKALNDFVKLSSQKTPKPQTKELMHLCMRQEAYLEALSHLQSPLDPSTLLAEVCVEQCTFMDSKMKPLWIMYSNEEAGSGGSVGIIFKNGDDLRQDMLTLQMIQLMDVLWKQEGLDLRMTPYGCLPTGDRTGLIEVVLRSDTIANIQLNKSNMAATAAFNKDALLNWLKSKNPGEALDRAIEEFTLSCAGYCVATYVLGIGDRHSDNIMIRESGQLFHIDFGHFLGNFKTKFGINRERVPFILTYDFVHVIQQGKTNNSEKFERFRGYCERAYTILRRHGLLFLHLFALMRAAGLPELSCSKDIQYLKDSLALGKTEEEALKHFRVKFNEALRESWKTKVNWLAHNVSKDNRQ
Sequence (P27986 whole entry partner): as the sequence (P27986 whole entry partner, canonical isoform) above
Excerpt: A compound's ability in selectively inhibiting PI3K-δ can be assessed using RAJI cells, i.e., B lymphocyte cells derived from lymphoma patients. Briefly, serum-starved RAJI cells are stimulated with anti-human IgM, thereby causing signaling through the B-cell receptors, as described in, for example, He et al., Leukemia Research (2009) 33: 798-802. B-cell receptor signaling is important for the activation, differentiation, and survival of B cells and certain B-cell derived cancers. Reduction of phospho-AKT is indicative of compounds that may inhibit B-cell proliferation and function in certain diseases. […] Certain compounds provided herein were tested in RAJI cell model using procedures as described above.

Row | IC50 [µM] | Compound
36 | 0.01 to 0.1 | C[C@H](NC(=O)c1nccnc1N)c1cc2cccc(C(F)(F)F)c2c(=O)n1-c1ccccc1 [Compound 52]
37 | 0.001 to 0.01 | C[C@H](NC(=O)c1c(N)nn2cccnc12)c1cc2cccc(Cl)c2c(=O)n1CCCNS(C)(=O)=O [Compound 53]
38 | 0.01 to 0.1 | CNS(=O)(=O)CCn1c([C@H](C)NC(=O)c2c(N)nn3cccnc23)cc2cccc(Cl)c2c1=O [Compound 54]
39 | 0.01 to 0.1 | C[C@H](NC(=O)c1c(N)nn2cccnc12)c1cc2cccc(Cl)c2c(=O)n1CCc1nnnn1C [Compound 55]
40 | 0.01 to 0.1 | C[C@H](NC(=O)c1c(N)nn2cccnc12)c1cc2cccc(Cl)c2c(=O)n1CCc1nnn(C)n1 [Compound 56]
41 | 0.1 to 0.5 | C[C@H](NC(=O)c1c(N)nn2cccnc12)c1cc2cccc(Cl)c2c(=O)n1CCCS(C)(=O)=O [Compound 57]
42 | 0.01 to 0.1 | C[C@H](NC(=O)c1c(N)nn2cccnc12)c1cc2cccc(Cl)c2c(=O)n1CCS(=O)(=O)N(C)C [Compound 58]
